Source: patent publication US11780851B2, “LRRK2 inhibitors” (H. Lundbeck A/S, priority 2021, dated 2023)
Entries after “also recorded” stand apart in the source; their conditions may differ. Read-outs that look alike come from different tables or passages of the source.

Legend:
[1] = Free fraction in plasma (equilibrium dialysis); type: in vitro ADME, male Sprague-Dawley rat; conditions: rat plasma, 1 μM, 5 h at 37° C.
Protocol: The free fractions in male Sprague-Dawley rat or female Gottingen minipig plasma (fuplasma) and rat brain homogenate (fubrain) were determined by equilibrium dialysis using 96-well HTD-dialysis plates with dialysis membranes (molecular weight cut off 12-14 KDa). One side of the HTD-dialysis plate was loaded with matrix (plasma or brain homogenate) and the other side with buffer (100 mM sodium phosphate buffer, pH 7.4). Test compounds were dissolved in DMSO then spiked (5 μL of 0.2 mM) into blank (995 μL) plasma or diluted brain homogenate (1:4 ratio in phosphate buffer) giving a final nominal concentration 1 μM (≤0.5% DMSO). The matrices were loaded into respective chambers and equilibrated against phosphate buffer for 5 h at 37° C. (in a humidified air incubator with 5% CO2 with shaking). Samples from both chambers (buffer and plasma or brain homogenate) were aliquoted to fresh 96-well polypropylene plates then matrix matched using an equal volume of opposite blank matrix before extraction with cold solvent (3 volumes acetonitrile) containing an appropriate bioanalytical internal standard. After centrifugation (20 min, 3200 g, 4° C.) the supernatants were diluted with appropriate volumes of water and compound concentrations were quantified by LC/MS-MS against matrix matched calibration standards. The fuplasma and fubrain were calculated as a percent free according to equation 4 below.
Where [F] is the analyte concentration on the buffer (receiver) side of the membrane; [T] is the analyte concentration on the plasma or brain (donor) side of the membrane; [TO] is the analyte concentration in the plasma or brain sample at time zero; D is matrix dilution factor which is determined as 4 for brain matrix and 1 for plasma matrix in these assays.

[2] = Rat B/P (brain disposition); type: in vivo, male Sprague-Dawley rats; conditions: male, Sprague-Dawley; for concentration at 1 h / Kp uu at 1 h / Kp at 1 h: time point 1.0 h; for concentration at 1 h / Kp at 1 h / concentration at 0.5 h / Kp at 0.5 h: mean ± stdev; for Kp uu at 1 h / Kp at 1 h / Kp uu at 0.5 h / Kp at 0.5 h: brain/plasma; for Kp uu at 1 h / Kp uu at 0.5 h: fubrain from brain homogenate; for Kp at 1 h / Kp at 0.5 h: n = 3; for concentration at 0.5 h / Kp uu at 0.5 h / Kp at 0.5 h: time point 0.5 h
Protocol: Brain disposition was evaluated for each compound in male Sprague-Dawley rats (n=3, standard body weight). […] Isolated plasma and brain homogenates were extracted by standard protein precipitation in acetonitrile, containing internal standard, followed by LC-MS/MS analysis using an optimized analytical method. Concentrations of test compound in plasma and brain were quantified against matrix matched calibration standards. The total plasma and brain concentration data are presented in Table 7 alongside the calculated brain Kp (total brain concentration:total plasma concentration ratio).

LRRK2 G2019S = biological target: T1, LRRK2 G2019S (Homo sapiens, UniProt Q5S007, G2019S); assay: LRRK2 G2019S kinase activity assay (LanthaScreen TR-FRET); type: biochemical; conditions: 250 pM LRRK2 G2019S, 1.3 mM ATP, 3 h at 30° C.; n≥2 tests
T1 construct: purchased Invitrogen (Life Technologies Corporation)
T1 sequence (Q5S007 970-2527 G2019S): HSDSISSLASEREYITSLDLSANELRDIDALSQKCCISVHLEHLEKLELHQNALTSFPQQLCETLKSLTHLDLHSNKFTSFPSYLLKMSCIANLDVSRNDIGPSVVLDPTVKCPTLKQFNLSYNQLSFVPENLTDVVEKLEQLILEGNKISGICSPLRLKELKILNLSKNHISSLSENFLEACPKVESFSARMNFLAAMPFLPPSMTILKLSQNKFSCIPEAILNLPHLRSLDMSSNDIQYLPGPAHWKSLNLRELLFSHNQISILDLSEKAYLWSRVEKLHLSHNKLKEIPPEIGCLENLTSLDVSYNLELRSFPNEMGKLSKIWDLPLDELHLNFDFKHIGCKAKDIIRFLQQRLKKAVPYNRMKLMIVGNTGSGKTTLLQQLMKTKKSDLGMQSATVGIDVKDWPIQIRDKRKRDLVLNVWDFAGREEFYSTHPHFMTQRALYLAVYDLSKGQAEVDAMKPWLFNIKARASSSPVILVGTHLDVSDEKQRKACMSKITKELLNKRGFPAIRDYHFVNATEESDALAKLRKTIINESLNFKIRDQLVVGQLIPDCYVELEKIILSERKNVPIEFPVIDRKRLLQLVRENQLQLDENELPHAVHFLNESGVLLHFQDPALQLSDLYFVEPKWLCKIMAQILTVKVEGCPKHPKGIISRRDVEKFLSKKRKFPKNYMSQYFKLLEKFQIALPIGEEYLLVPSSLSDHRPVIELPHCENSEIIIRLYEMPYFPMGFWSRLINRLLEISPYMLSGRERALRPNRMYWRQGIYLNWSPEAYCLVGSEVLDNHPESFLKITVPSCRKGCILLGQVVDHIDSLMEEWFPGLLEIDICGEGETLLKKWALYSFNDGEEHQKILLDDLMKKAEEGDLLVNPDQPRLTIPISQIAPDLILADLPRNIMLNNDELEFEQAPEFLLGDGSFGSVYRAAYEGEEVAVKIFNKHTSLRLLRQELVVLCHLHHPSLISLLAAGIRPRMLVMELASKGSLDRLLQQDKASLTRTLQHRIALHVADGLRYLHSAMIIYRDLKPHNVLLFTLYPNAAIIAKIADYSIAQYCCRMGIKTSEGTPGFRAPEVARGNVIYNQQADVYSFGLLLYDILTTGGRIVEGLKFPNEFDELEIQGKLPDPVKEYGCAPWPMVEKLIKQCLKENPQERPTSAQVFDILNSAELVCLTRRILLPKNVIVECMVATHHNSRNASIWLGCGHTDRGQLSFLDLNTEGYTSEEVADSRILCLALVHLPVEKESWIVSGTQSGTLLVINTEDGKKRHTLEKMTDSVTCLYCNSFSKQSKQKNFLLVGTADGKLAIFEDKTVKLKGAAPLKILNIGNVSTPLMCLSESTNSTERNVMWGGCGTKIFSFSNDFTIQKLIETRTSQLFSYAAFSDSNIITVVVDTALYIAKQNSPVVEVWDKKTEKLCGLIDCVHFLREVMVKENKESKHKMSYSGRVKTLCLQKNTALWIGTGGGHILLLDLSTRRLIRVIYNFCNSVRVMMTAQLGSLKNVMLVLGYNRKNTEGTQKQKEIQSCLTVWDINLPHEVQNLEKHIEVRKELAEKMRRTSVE
Outline: (§1)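 TR-FRET measured phosphorylation of fluorescein-ERM LRRKtide by human LRRK2 residues 970–2527, wild-type or G2019S, detected with a terbium anti-phospho-LRRKtide antibody. The 520/495 nm ratio was normalized to uninhibited and inhibitor controls. IC50 came from a Hill fit, log-averaged over independent experiments.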

[3] = Hepatocyte intrinsic clearance assay; type: in vitro ADME, human; conditions: human, pooled donor, cryopreserved hepatocytes, pH 7.4, 0.1 μM, 2 h at 37° C., 1×10^6 hepatocytes/mL; * measured on 3 separate occasions, ** on a single occasion
Protocol: Test compounds (final concentration 0.1 μM, 0.05% organic) were incubated for 2 h at 37° C., with shaking, in supplemented Leibovitz L-15 media (pH7.4) containing commercially sourced, pooled donor, cryopreserved hepatocytes (final concentration 1×10^6 hepatocytes/m L). The CLint reactions (350 μL) were initiated by addition of test compound. Aliquots (25 μL) were taken at 1, 5, 10, 15, 30, 60, 90 and 120 minutes and then protein crashed with ice-cold acetonitrile containing internal standard (150 μL) then centrifuged (1960 g for 20 minutes at 4° C.). Supernatant was diluted (1:4) with deionized water then analyzed by liquid chromatography (LC)-tandem mass spectrometry (MS/MS). The intrinsic clearances (CLint) were calculated from the slope (k) of the linear regressions of percentages of compound remaining in incubation against incubation time, according to equations 2 and 3.

LRRK2 WT = biological target: T2, LRRK2 WT (Homo sapiens, UniProt Q5S007); assay: LRRK2 wild-type kinase activity assay (LanthaScreen TR-FRET); type: biochemical; conditions: 1 nM LRRK2 WT, 1.3 mM ATP, 3.5 h at 30° C.; n≥2 tests
T2 construct: comprises residue 970 to 2527 of the full length human wild-type LRRK2 kinase; purchased Invitrogen (Life Technologies Corporation)
T2 sequence (Q5S007 970-2527): as the sequence (Q5S007 970-2527 G2019S) above, with S1050G counted along it
Outline: as §1

GSH adduct screening = type: in vitro ADME, human; conditions: 1 μM, 3 h at 37° C., HLM 0.5 mg/mL, NADPH, with and without GSH
Protocol: Test compounds (final concentration 1 μM, 0.25% organic) were incubated for 3 h at 37° C. in commercially sourced, pooled donor, human liver microsomes (HLM, final concentration 0.5 mg/mL) with and without addition of glutathione (GSH; final concentration […]). The metabolic reaction was initiated by addition of microsomal solution to the mixture of cofactor NADPH (final concentration 1 mM), test compound and GSH. After 3 h of incubation in a water bath at 37° C., the reaction was stopped by addition of 0.2% formic acid in acetonitrile, followed by mixing and centrifugation (16000 g for 5 minutes). Supernatant was diluted (1:1) with HPLC water then analyzed by liquid chromatography (LC)-quadrupole time-of-flight mass spectrometry (QTOF-MS). Accurate mass MS and MS/MS spectra from samples with GSH and without GSH, respectively, were compared to identify detectable GSH and/or cysteine related adducts.

[4] = brain, oral gavage 10 mg/kg, n = 3, read-out: Total brain concentration
[5] = plasma, oral gavage 10 mg/kg, n = 3, read-out: Total plasma concentration

fuplasma (% free) [1] | IC50 (LRRK2 G2019S) | CLint scaled at 0.1 μM [3] | IC50 (LRRK2 WT) | SMILES | other results
19.9 % free | 7.3 nM | 9.5 mL/min/kg | 25 nM | Cc1c2c(nn1[C@H]1CCCCOC1)OCCCn1nc(Cl)c3cnc(nc31)N2 (single isomer, unassigned) [Example 27, (−)-(R) or (S)-8-Chloro-3-methyl-2-(oxepan-3-yl)-2,4,12,13-tetrahydro-11H-5,7-(azenometheno)dipyrazolo[3,4-b:5′,1′-g][1]oxa[4,6,8]triazacycloundecine] | concentration at 1 h ([2]; brain, oral gavage 5 mg/kg, n = 3, read-out: Total brain concentration): 443 ± 50 ng/g; Kp uu at 1 h ([2]; oral gavage 5 mg/kg): 0.52 ± 0.01; Kp at 1 h ([2]; oral gavage 5 mg/kg): 1.63 ± 0.03; concentration at 1 h ([2]; plasma, oral gavage 5 mg/kg, n = 3, read-out: Total plasma concentration): 273 ± 36 ng/mL
24.9 % free | 2.4 nM | < 4.17 mL/min/kg | 5.6 nM | Cc1c2c(nn1[C@@H]1CCOC[C@H]1F)OCCCn1nc(Cl)c3cnc(nc31)N2 (single isomer, unassigned) [Example 31, (−)-8-Chloro-2-((3S,4R) or (3R,4S)-3-fluorotetrahydro-2H-pyran-4-yl)-3-methyl-2,4,12,13-tetrahydro-11H-5,7-(azenometheno)dipyrazolo[3,4-b:5′,1′-g][1]oxa[4,6,8]triazacycloundecine] | concentration at 1 h [2, 4]: 215 ± 70 ng/g; Kp uu at 1 h ([2]; oral gavage 10 mg/kg): 0.5 ± 0.04; Kp at 1 h ([2]; oral gavage 10 mg/kg): 1.65 ± 0.13; concentration at 1 h [2, 5]: 133 ± 54 ng/mL
21.7 % free | 2.9 nM | 6.33 mL/min/kg | 7.9 nM | Cc1c2c(nn1[C@H]1CCOC(C)(C)C1)OCCCn1nc(Cl)c3cnc(nc31)N2 (single isomer, unassigned) [Example 42, (+)-(R) or (S)-8-Chloro-2-(2,2-dimethyltetrahydro-2H-pyran-4-yl)-3-methyl-2,4,12,13-tetrahydro-11H-5,7-(azenometheno)dipyrazolo[3,4-b:5′,1′-g][1]oxa[4,6,8]triazacycloundecine] | concentration at 0.5 h [2, 4]: 550 ± 283 ng/g; Kp uu at 0.5 h ([2]; oral gavage 10 mg/kg): 0.32 ± 0.05; Kp at 0.5 h ([2]; oral gavage 10 mg/kg): 1.88 ± 0.31; concentration at 0.5 h [2, 5]: 295 ± 145 ng/mL
 | 5.3 nM | < 4 mL/min/kg | 9 nM | [2H]C([2H])([2H])c1c2c(nn1[C@H]1CCO[C@@H](C)C1)OCCCn1nc(Cl)c3cnc(nc31)N2 (single isomer, unassigned) [Example 51, (+)-8-Chloro-3-(methyl-d3)-2-((2R,4R) or (2S,4S)-2-methyltetrahydro-2H-pyran-4-yl)-2,4,12,13-tetrahydro-11H-5,7-(azenometheno)dipyrazolo[3,4-b:5′,1′-g][1]oxa[4,6,8]triazacycloundecine] | Adduct detected in GSH supplemented HLMs (GSH adduct screening): +GSH
 | 5.9 nM | < 4 mL/min/kg | 17 nM | [2H]C([2H])([2H])c1c2c(nn1[C@@H]1CCOC[C@H]1F)OCCCn1nc(Cl)c3cnc(nc31)N2 (single isomer, unassigned) [Example 62, (−)-8-Chloro-2-((3R,4S) or (3S,4R)-3-fluorotetrahydro-2H-pyran-4-yl)-3-(methyl-d3)-2,4,12,13-tetrahydro-11H-5,7-(azenometheno)dipyrazolo[3,4-b:5′,1′-g][1]oxa[4,6,8]triazacycloundecine] | 
 |  | 14.2 mL/min/kg |  | Cc1c2c(nn1C1CCOCC1)OCCCn1nc(Cl)c3cnc(nc31)N2 [Example 2, 8-Chloro-3-methyl-2-(tetrahydro-2H-pyran-4-yl)-2,4,12,13-tetrahydro-11H-5,7-(azenometheno)dipyrazolo[3,4-b:5′,1′-g][1]oxa[4,6,8]triazacycloundecine] | Adduct detected in GSH supplemented HLMs (GSH adduct screening): +GSH
 | 2.4 nM | 4 mL/min/kg | 6.8 nM | [2H]C([2H])([2H])c1c2c(nn1C1([2H])CCOCC1)OCCCn1nc(Cl)c3cnc(nc31)N2 [Example 15, 8-Chloro-3-(methyl-d3)-2-(tetrahydro-2H-pyran-4-yl-4-d)-2,4,12,13-tetrahydro-11H-5,7-(azenometheno)dipyrazolo[3,4-b:5′,1′-g][1]oxa[4,6,8]triazacycloundecine] | 
25.2 % free | 6.4 nM | 5.67 mL/min/kg | 17 nM | Cc1c2c(nn1[C@H]1C[C@@H](C)O[C@@H](C)C1)OCCCn1nc(Cl)c3cnc(nc31)N2 [Example 41, 8-chloro-2-((2R,4r,6S)-2,6-dimethyltetrahydro-2H-pyran-4-yl)-3-methyl-2,4,12,13-tetrahydro-11H-5,7-(azenometheno)dipyrazolo[3,4-b:5′,1′-g][1]oxa[4,6,8]triazacycloundecine] | concentration at 0.5 h [2, 4]: 620 ± 30 ng/g; Kp at 0.5 h ([2]; oral gavage 10 mg/kg): 2.5 ± 0.31; concentration at 0.5 h [2, 5]: 250 ± 24 ng/mL
25.5 % free | 4.3 nM | < 4 mL/min/kg | 13 nM | Cc1c2c(nn1[C@@H]1C[C@H]3CC[C@@H](C1)O3)OCCCn1nc(Cl)c3cnc(nc31)N2 [Example 44, 2-((1R,3s,5S)-8-Oxabicyclo[3.2.1]octan-3-yl)-8-chloro-3-methyl-2,4,12,13-tetrahydro-11H-5,7-(azenometheno)dipyrazolo[3,4-b:5′,1′-g][1]oxa[4,6,8]triazacycloundecine] | concentration at 0.5 h [2, 4]: 731 ± 223 ng/g; Kp uu at 0.5 h ([2]; oral gavage 10 mg/kg): 0.3 ± 0.04; Kp at 0.5 h ([2]; oral gavage 10 mg/kg): 1.56 ± 0.23; concentration at 0.5 h [2, 5]: 468 ± 117 ng/mL
 | 5.3 nM | < 4 mL/min/kg | 10 nM | [2H]C([2H])([2H])c1c2c(nn1[C@H]1CC[C@H](OC)CC1)OCCCn1nc(Cl)c3cnc(nc31)N2 [Example 50] | Adduct detected in GSH supplemented HLMs (GSH adduct screening): did not form GSH adduct; also recorded: None detected
 | 6.2 nM | 8.5 mL/min/kg | 16 nM | CCc1c2c(nn1[C@H]1CC[C@H](OC)CC1)OCCCn1nc(Cl)c3cnc(nc31)N2 [Example 57, 8-Chloro-3-ethyl-2-((1r,4r)-4-methoxycyclohexyl)-2,4,12,13-tetrahydro-11H-5,7-(azenometheno)dipyrazolo[3,4-b:5′,1′-g][1]oxa[4,6,8]triazacycloundecine] | 
